Test results: US20240252488A1 (KOREA RESEARCH INSTITUTE OF CHEMICAL TECHNOLOGY, priority 2020, published 2024)

Key:
FADD−/− Jurkat cells = assay: Necroptosis inhibition assay, TNF-α-induced necroptosis (CellTiter-Glo 2.0); assay type: cell-based, human; conditions: TNF-α 15 ng/mL; for Necroptosis inhibition assay (Rescue %) 1 μM: compound 1 μM; for Necroptosis inhibition assay (Rescue %) 10 μM: compound 10 μM
In short: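 Tested at three fixed concentrations (0.1, 1, 10 μM final) with a 30-minute room-temperature preincubation ahead of 15 ng/mL TNF-α challenge lasting 20 to 24 hours. Inhibition rate and cytotoxicity derive from ATP luminescence.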

MLKL [1] = target: T1, MLKL (Homo sapiens, UniProt Q8NB16); assay: MLKL degradation assay in HepG2 cell line (western blot); assay type: cell-based; design: endogenous in cells; host or cells: HepG2 or HaCaT; conditions: cell line not given; for Degradation assay (Degradation %) 1 μM: compound 1 μM; for Degradation assay (Degradation %) 10 μM: compound 10 μM
T1 sequence (Q8NB16 1-471): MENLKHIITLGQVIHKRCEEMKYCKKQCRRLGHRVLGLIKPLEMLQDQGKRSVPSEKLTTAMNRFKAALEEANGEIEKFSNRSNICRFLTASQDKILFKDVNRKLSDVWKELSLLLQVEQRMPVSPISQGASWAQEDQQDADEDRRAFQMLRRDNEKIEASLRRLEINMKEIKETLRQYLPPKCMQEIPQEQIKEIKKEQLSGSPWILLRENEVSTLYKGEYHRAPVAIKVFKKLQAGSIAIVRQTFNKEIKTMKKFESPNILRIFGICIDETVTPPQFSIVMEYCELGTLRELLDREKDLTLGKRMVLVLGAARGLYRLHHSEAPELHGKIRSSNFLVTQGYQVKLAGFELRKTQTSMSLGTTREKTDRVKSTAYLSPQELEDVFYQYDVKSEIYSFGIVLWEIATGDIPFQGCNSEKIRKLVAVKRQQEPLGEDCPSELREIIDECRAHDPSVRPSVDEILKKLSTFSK
In short: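 Degradation is judged from MLKL band intensity on immunoblots of HepG2 lysates taken after 20-24 hours of compound at final 1 or 10 μM.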

MLKL [2] = target: T1, MLKL; assay: Measurement of binding affinity with MLKL receptor (competitive binding assay, Kd); design: made in house; host or cells: HEK 293 cell line (T7 phage in E. coli BL21-derived host is also described)
In short: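 qPCR of MLKL eluted from liganded beads served as the read-out, from which Kd was derived. The protein was made in HEK 293 cells with a DNA tag, and test compounds competed with the bead-bound ligand at 0.9% final DMSO.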

Structure (SMILES) | Necroptosis inhibition assay (Rescue %) 1 μM (FADD−/− Jurkat cells) | Necroptosis inhibition assay (Rescue %) 10 μM (FADD−/− Jurkat cells) | Degradation assay (Degradation %) 1 μM (MLKL [1]) | Degradation assay (Degradation %) 10 μM (MLKL [1]) | Kd (MLKL [2]) | Necroptosis inhibition assay (Rescue %) 1.1 μM (FADD−/− Jurkat cells; compound 1.1 µM) | Necroptosis inhibition assay (Rescue %) 1 μM (FADD−/− Jurkat cells; FADD−/− Jurkat cells) | Necroptosis inhibition assay (Rescue %) 10 μM (FADD−/− Jurkat cells; FADD−/− Jurkat cells)
Nc1ncc(-c2cnn(C3CCN(CC4CN(C(=O)C5CCN(c6ccc7c(c6)C(=O)N(C6CCC(=O)NC6=O)C7=O)CC5)CCO4)CC3)c2)nc1C(=O)OC(C(=O)Nc1ccc(F)cc1)c1ccccc1 (stereo not shown) [TDH-305, 2-((4-fluorophenyl)amino)-2-oxo-1-phenylethyl 3-amino-6-(1-(1-((4-(1-(2-(2,6-dioxopiperidin-3-yl)-1,3-dioxoisoindolin-5-yl)piperidine-4-carbonyl)morpholin-2-yl)methyl)piperidin-4-yl)-1H-pyrazol-4-yl)pyrazine-2-carboxylate] | 66.84% | 52.42% | 72.47% | 50.39% | 2.8 nM | – | – | –
Nc1ncc(-c2cnn(C3CN(CC4CCN(C(=O)CNc5ccc6c(c5)C(=O)N(C5CCC(=O)NC5=O)C6=O)CC4)C3)c2)nc1C(=O)O[C@@H](C(=O)Nc1ccc(F)cc1)c1ccccc1 (stereo partly drawn) [TDH-360, (R)-2-((4-fluorophenyl)amino)-2-oxo-1-phenylethyl 3-amino-6-(1-(1-((1-((2-(2,6-dioxopiperidin-3-yl)-1,3-dioxoisoindolin-5-yl)glycyl)piperidin-4-yl)methyl)azetidin-3-yl)-1H-pyrazol-4-yl)pyrazine-2-carboxylate] | – | 38.05% | 87.25% | 73.06% | 3.3 nM | 55.49 (1.1µM) % | – | –
Nc1ncc(-c2cnn(C3CCN(C(=O)COCCOCCNC(=O)COc4cccc5c4C(=O)N(C4CCC(=O)NC4=O)C5=O)CC3)c2)nc1C(=O)O[C@@H](C(=O)Nc1ccc(F)cc1)c1ccccc1 (stereo partly drawn) [TDH-188, (R)-2-((4-fluorophenyl)amino)-2-oxo-1-phenylethyl 3-amino-6-(1-(1-(2-(2-(2-(2-((2-(2,6-dioxopiperidin-3-yl)-1,3-dioxoisoindolin-4-yl)oxy)acetamido)ethoxy)ethoxy)acetyl)piperidin-4-yl)-1H-pyrazol-4-yl)pyrazine-2-carboxylate] | 45.68% | 42.08% | 7.04% | 5.3% | 3.5 nM | – | – | –
Nc1ncc(-c2cnn(C3CCN(CCCCCCCCCCNC(=O)C4CN(c5ccc6nnn(C7CCC(=O)NC7=O)c(=O)c6c5)C4)CC3)c2)nc1C(=O)O[C@@H](C(=O)Nc1ccc(F)cc1)c1ccccc1 (stereo partly drawn) [TDH-178, (R)-2-((4-fluorophenyl)amino)-2-oxo-1-phenylethyl 3-amino-6-(1-(1-(10-(1-(3-(2,6-dioxopiperidin-3-yl)-4-oxo-3,4-dihydrobenzo[d][1,2,3]triazin-6-yl)azetidine-3-carboxamido)decyl)piperidin-4-yl)-1H-pyrazol-4-yl)pyrazine-2-carboxylate] | 24.45% | 28.25% | 72.12% | 84.5% | 73 nM | – | – | –
Nc1ncc(-c2cnn(C3CCN(C(=O)CC4CCN(C(=O)C5CN(c6ccc7nnn(C8CCC(=O)NC8=O)c(=O)c7c6)C5)CC4)CC3)c2)nc1C(=O)O[C@@H](C(=O)Nc1ccc(F)cc1)c1ccccc1 (stereo partly drawn) [TDH-406, (R)-2-((4-fluorophenyl)amino)-2-oxo-1-phenylethyl 3-amino-6-(1-(1-(2-(1-(1-(3-(2,6-dioxopiperidin-3-yl)-4-oxo-3,4-dihydrobenzo[d][1,2,3]triazin-6-yl)azetidine-3-carbonyl)piperidin-4-yl)acetyl)piperidin-4-yl)-1H-pyrazol-4-yl)pyrazine-2-carboxylate] | – | – | 77.69% | 60.15% | 6.5 nM | – | 44.99% | 39.97%
Nc1ncc(-c2cnn(C3CCN(CCCN4CC5CN(C(=O)CNc6ccc7c(c6)C(=O)N(C6CCC(=O)NC6=O)C7=O)CC5C4)CC3)c2)nc1C(=O)O[C@@H](C(=O)Nc1ccc(F)cc1)c1ccccc1 (stereo partly drawn) [TDH-467, (R)-2-((4-fluorophenyl)amino)-2-oxo-1-phenylethyl 3-amino-6-(1-(1-(3-(5-((2-(2,6-dioxopiperidin-3-yl)-1,3-dioxoisoindolin-5-yl)glycyl)hexahydropyrrolo[3,4-c]pyrrol-2(1H)-yl)propyl)piperidin-4-yl)-1H-pyrazol-4-yl)pyrazine-2-carboxylate] | – | – | 93.95% | 86.45% | 0.5 nM | – | 54.19% | −9.09%
COc1ccc(C(=O)N2CCC(CCN3CCC(CN4CCC(n5cc(-c6cnc(N)c(C(=O)O[C@@H](C(=O)Nc7ccc(F)cc7)c7ccccc7)n6)cn5)CC4)CC3)CC2)cc1N1CCC(=O)NC1=O [TDH-501, (R)-2-((4-fluorophenyl)amino)-2-oxo-1-phenylethyl 3-amino-6-(1-(1-((1-(2-(1-(3-(2,4-dioxotetrahydropyrimidin-1(2H)-yl)-4-methoxybenzoyl)piperidin-4-yl)ethyl)piperidin-4-yl)methyl)piperidin-4-yl)-1H-pyrazol-4-yl)pyrazine-2-carboxylate] | – | – | 93.47% | 96.40% | 0.95 nM | – | 92.23% | 71.17%
Nc1ncc(-c2cnn(C3CCN(C(=O)COC4CCN(C(=O)C5CCN(c6ccc7c(c6)C(=O)N(C6CCC(=O)NC6=O)C7=O)CC5)CC4)CC3)c2)nc1C(=O)O[C@@H](C(=O)Nc1ccc(F)cc1)c1ccccc1 (stereo partly drawn) [TDH-398, (R)-2-((4-fluorophenyl)amino)-2-oxo-1-phenylethyl 3-amino-6-(1-(1-(2-((1-(1-(2-(2,6-dioxopiperidin-3-yl)-1,3-dioxoisoindolin-5-yl)piperidine-4-carbonyl)piperidin-4-yl)oxy)acetyl)piperidin-4-yl)-1H-pyrazol-4-yl)pyrazine-2-carboxylate] | 36.81% | 30.39% | 88.25% | 83.83% | 8.9 nM | – | – | –
Nc1ncc(-c2cnn(C3CCN(C(=O)CC4CCN(c5cccc6c5C(=O)N(C5CCC(=O)NC5=O)C6=O)CC4)CC3)c2)nc1C(=O)O[C@@H](C(=O)Nc1ccc(F)cc1)c1ccccc1 (stereo partly drawn) [TDH-343, (R)-2-((4-fluorophenyl)amino)-2-oxo-1-phenylethyl 3-amino-6-(1-(1-(2-(1-(2-(2,6-dioxopiperidin-3-yl)-1,3-dioxoisoindolin-4-yl)piperidin-4-yl)acetyl)piperidin-4-yl)-1H-pyrazol-4-yl)pyrazine-2-carboxylate] | 12.75% | 14.42% | 31.43% | 43.78% | 11 nM | – | – | –
Nc1ncc(-c2cnn(C3CCN(CCOCCOCCOCCNC(=O)CNc4ccc5c(c4)C(=O)N(C4CCC(=O)NC4=O)C5=O)CC3)c2)nc1C(=O)O[C@@H](C(=O)Nc1ccc(F)cc1)c1ccccc1 (stereo partly drawn) [TDH-144, (R)-2-((4-fluorophenyl)amino)-2-oxo-1-phenylethyl 3-amino-6-(1-(1-(1-((2-(2,6-dioxopiperidin-3-yl)-1,3-dioxoisoindolin-5-yl)amino)-2-oxo-6,9,12-trioxa-3-azatetradecan-14-yl)piperidin-4-yl)-1H-pyrazol-4-yl)pyrazine-2-carboxylate] | 15.23% | 68.71% | 58.79% | 86.28% | 2.5 nM | – | – | –
Nc1ncc(-c2cnn(C3CCN(CC4CCN(CC5CCN(C(=O)C6CCN(C7=CC(=O)N(C8CCC(=O)NC8=O)C7=O)CC6)CC5)CC4)CC3)c2)nc1C(=O)O[C@@H](C(=O)Nc1ccc(F)cc1)c1ccccc1 (stereo partly drawn) [TDH-527, (R)-2-((4-fluorophenyl)amino)-2-oxo-1-phenylethyl 3-amino-6-(1-(1-((1-((1-(1-(1-(2,6-dioxopiperidin-3-yl)-2,5-dioxo-2,5-dihydro-1H-pyrrol-3-yl)piperidine-4-carbonyl)piperidin-4-yl)methyl)piperidin-4-yl)methyl)piperidin-4-yl)-1H-pyrazol-4-yl)pyrazine-2-carboxylate] | – | – | 71.10% | 42.46% | 1.2 nM | – | 42.79% | −12.98%
